Laboratory results reported in patent US20240239775A1, “FXR REGULATOR, PREPARATION METHOD THEREFOR, PHARMACEUTICAL COMPOSITION THEREOF AND USE THEREOF” (QINGDAO RUIJI MEDICAL TECHNOLOGY CO., LTD., priority 2021, published 2024).

What follows are molecules tested against T1, FXR (Homo sapiens, UniProt Q96RI1) (assay: FXR antagonist screening by TR-FRET (LanthaScreen TR-FRET FXR co-activation assay kit)). Conditions: Table 1.1, FXR antagonistic activity; TR-FRET with CDCA; geometric means of at least two independent runs.
T1 construct: 5 μL of 20 nM FXR-LBD Complete Coregulator buffer G; purchased ThermoFisher PV4833
T1 sequence (Q96RI1 262-486 limits assumed): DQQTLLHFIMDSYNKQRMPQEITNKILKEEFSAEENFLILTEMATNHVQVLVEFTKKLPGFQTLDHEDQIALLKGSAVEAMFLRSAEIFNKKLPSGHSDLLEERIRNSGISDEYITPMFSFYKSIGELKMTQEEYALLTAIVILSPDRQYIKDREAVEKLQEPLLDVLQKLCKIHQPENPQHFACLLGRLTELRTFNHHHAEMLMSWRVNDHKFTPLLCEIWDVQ
Assay type: biochemical
Procedure, shortened: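 FXR-LBD (20 nM working solution) mixed with compound, CDCA (200 μM working solution) as agonist, Fluorescein-SRC2-2 and Tb-anti-GST antibody in Coregulator buffer G; 10 h at room temperature. Coactivator recruitment read by TR-FRET, triplicate wells.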

SMILES | IC50 [µM]
CCOC(=O)c1oc2ccc(S(=O)(=O)N(CCc3ccccc3)Cc3ccc(N4CCN(C)CC4)cc3)cc2c1C [Example M8-80, ethyl 3-methyl-5-(N-(4-(4-methylpiperazin-1-yl)benzyl)-N-phenethylsulfamoyl)benzofuran-2-carboxylate] | 50 to 100
CCOC(=O)c1oc2ccc(S(=O)(=O)N(CCc3ccccc3)Cc3cccc(Cl)c3)cc2c1C [Example M4-21, ethyl 3-methyl-5-(N-(3-chlorobenzyl)-N-phenethylsulfamoyl)benzofuran-2-carboxylate] | 50 to 100
CCOC(=O)c1oc2ccc(S(=O)(=O)N(CCc3ccccc3)Cc3ccc(F)cc3C(F)(F)F)cc2c1C [Example M4-57, ethyl 3-methyl-5-(N-(2-(trifluoromethyl)-4-fluorobenzyl)-N-phenethylsulfamoyl)benzofuran-2-carboxylate] | 50 to 100
CCOC(=O)c1oc2ccc(S(=O)(=O)N(CCc3ccccc3)Cc3c(Cl)cccc3Cl)cc2c1C [Example M4-49, ethyl 3-methyl-5-(N-(2,6-dichlorobenzyl)-N-phenethylsulfamoyl)benzofuran-2-carboxylate] | 50 to 100
CCOC(=O)c1oc2ccc(S(=O)(=O)N(CCc3ccccc3)Cc3cccc(-c4ccccc4)c3)cc2c1C [Example M4-26, ethyl 3-methyl-5-(N-([1,1′-biphenyl]-3-ylmethyl)-N-phenethylsulfamoyl)benzofuran-2-carboxylate] | 50 to 100
CCOC(=O)c1oc2ccc(S(=O)(=O)N(CCc3ccccc3)c3cccc(N4CCN(C)CC4)c3)cc2c1C [Example M8-78, ethyl 3-methyl-5-(N-(3-(4-methylpiperazin-1-yl)phenyl)-N-phenethylsulfamoyl)benzofuran-2-carboxylate] | 50 to 100
CCOC(=O)c1oc2ccc(S(=O)(=O)N(CCc3ccccc3)c3ccc(N4CCN(C(C)=O)CC4)cc3)cc2c1C [Example M8-68, ethyl 3-methyl-5-(N-(4-(4-acetylpiperazin-1-yl)phenyl)-N-phenethylsulfamoyl)benzofuran-2-carboxylate] | 50 to 100
CCOC(=O)c1oc2ccc(S(=O)(=O)N(CCc3ccccc3)Cc3ccccc3N3CCN(C(=O)CC(C)(C)C)CC3)cc2c1C [Example M10-103, ethyl 3-methyl-5-(N-(2-(4-(3,3-dimethylbutyryl)piperazin-1-yl)benzyl)-N-phenethylsulfamoyl)benzofuran-2-carboxylate] | 50 to 100

Same assay, conditions: Table 1.2, FXR antagonistic activity; TR-FRET with CDCA; geometric means of at least two independent runs

SMILES | IC50 [µM]
Cc1ccsc1C(=O)N1CCN(c2ccccc2N(CCc2ccccc2)S(=O)(=O)c2ccc3oc(C(=O)O)c(C)c3c2)CC1 [Example F27-S141, 5-(N-(2-(4-(3-methylthiophene-2-formyl)piperazin-1-yl)phenyl)-N-phenethylsulfamoyl)3-methylbenzofuran-2-carboxylic acid] | 0.1 to 10
CCOC(=O)c1[nH]c2ccc(S(=O)(=O)N(CCc3ccccc3)c3ccccc3N3CCN(C(=O)c4sccc4Br)CC3)cc2c1Cl [Example M10-161, Ethyl 5-(N-(2-(4-(3-bromothiophene-2-carbonyl)piperazin-1-yl)phenyl)-N-phenethylsulfamoyl)-3-chloro-1H-indole-2-carboxylate] | 50 to 100
Cc1c(C(=O)O)oc2ccc(S(=O)(=O)N(CCc3ccccc3)c3ccccc3N3CCN(C(=O)c4cncs4)CC3)cc12 [Example F27-S129, 3-methyl-5-(N-phenethyl-N-(2-(4-(thiazole-5-carbonyl)piperazin-1-yl)phenyl)sulfamoyl)benzofuran-2-carboxylic acid] | 0.1 to 10
COc1ccc(CCN(c2ccccc2N2CCN(C(=O)c3sccc3Br)CC2)S(=O)(=O)c2ccc3sc(C(=O)O)c(C)c3c2)cc1 [Example F27-S165, 5-(N-(2-(4-(3-bromothiophene-2-formyl)piperazin-1-yl)phenyl)-N-(4-methoxyphenethyl)sulfamoyl)3-methylbenzothiophene-2-carboxylic acid] | 0.1 to 10
Cc1ccc(CCN(c2ccccc2N2CCN(C(=O)c3sccc3Br)CC2)S(=O)(=O)c2ccc3sc(C(=O)O)c(C)c3c2)cc1 [Example F27-S167, 5-(N-(2-(4-(3-bromothiophene-2-carbonyl)piperazin-1-yl)phenyl)-N-(4-methylphenylethyl)sulfamoyl)-3-methylbenzothiophene-2-carboxylic acid] | 0.1 to 10
CCOC(=O)c1sc2ccc(S(=O)(=O)N(CCc3cccc(OC)c3)c3ccccc3N3CCN(C(=O)c4sccc4Br)CC3)cc2c1C [Example M10-170, Ethyl 5-(N-(2-(4-(3-bromothiophene-2-carbonyl)piperazin-1-yl)phenyl)-N-(3-methoxyphenethyl)sulfamoyl)-3-methylbenzothiophene-2-carboxylate] | 50 to 100
CCOC(=O)c1oc2ccc(S(=O)(=O)N(CCc3ccccc3)c3ccccc3N3CCN(C(=O)c4sccc4C)CC3)cc2c1C [Example M10-141, Ethyl 5-(N-(2-(4-(3-methylthiophene-2-formyl)piperazin-1-yl)phenyl)-N-phenethylsulfamoyl)3-methylbenzofuran-2-carboxylate] | 50 to 100
Cc1c(C(=O)O)oc2ccc(S(=O)(=O)N(CCc3ccccc3)c3ccccc3N3CC4CC3CN4C(=O)c3sccc3Br)cc12 (stereo not drawn) [Example F27-S157, 5-(N-(2-(5-(3-bromothiophene-2-formyl)-2,5-diazabicyclo[2.2.1]hept-2-yl)phenyl)-N-phenethylsulfamoyl)3-methylbenzofuran-2-carboxylic acid] | 0.1 to 10
CCOC(=O)c1sc2ccc(S(=O)(=O)N(CCc3ccccc3Cl)c3ccccc3N3CCN(C(=O)c4sccc4Br)CC3)cc2c1C [Example M10-172, Ethyl 5-(N-(2-(4-(3-bromothiophene-2-carbonyl)piperazin-1-yl)phenyl)-N-(2-chlorophenylethyl)sulfamoyl)-3-methylbenzothiophene-2-carboxylate] | 50 to 100
CCOC(=O)c1oc2ccc(S(=O)(=O)N(CCc3ccccc3)c3ccccc3N3CC4CC(C3)N4C(=O)c3sccc3Br)cc2c1C [Example M10-151, Ethyl 5-(N-(2-(6-(3-bromothiophene-2-carbonyl)-3,6-diazabicyclo[3.1.1]heptan-3-yl)phenyl)-N-phenethylsulfamoyl)-3-methylbenzofuran-2-carboxylate] | 50 to 100
CCOC(=O)c1oc2ccc(S(=O)(=O)N(CCc3ccccc3)c3ccccc3N3CCN(C(=O)c4ccno4)CC3)cc2c1C [Example M10-146, Ethyl 5-(N-(2-(4-(isoxazole-5-carbonyl)piperazin-1-yl)phenyl)-N-phenethylsulfamoyl)3-methylbenzofuran-2-carboxylate] | 50 to 100
Cc1ccc(C)c(C(=O)N2CCN(c3ccccc3N(CCc3ccccc3)S(=O)(=O)c3ccc4oc(C(=O)O)c(C)c4c3)CC2)c1 [Example F27-S137, 5-(N-(2-(4-(2,5-Dimethylbenzoyl)piperazin-1-yl)phenyl)-N-phenethylsulfamoyl)3-methylbenzofuran-2-carboxylic acid] | 0.1 to 10
Cc1c(C(=O)O)oc2ccc(S(=O)(=O)N(CCc3ccccc3)c3ccccc3N3CCN(C(=O)c4cc[nH]n4)CC3)cc12 [Example F27-S130, 5-(N-(2-(4-(1H-pyrazole-3-carbonyl)piperazin-1-yl)phenyl)-N-phenethylsulfamoyl)-3-methylbenzo furan-2-carboxylic acid] | 0.1 to 10
Cc1c(C(=O)O)oc2ccc(S(=O)(=O)N(CCc3ccccc3)c3ccccc3N3CCN(C(=O)c4ccc(C#Cc5ccccc5)cc4)CC3)cc12 [Example F27-S138, 5-(N-(2-(4-(4-(phenylethynyl)benzoyl)piperazin-1-yl)phenyl)-N-phenethylsulfamoyl)3-methylbenzofuran-2-carboxylic acid] | 0.1 to 10
CCOC(=O)c1oc2ccc(S(=O)(=O)N(CCc3ccccc3)c3ccccc3N3CCN(C(=O)c4ncc[nH]4)CC3)cc2c1C [Example M10-142, Ethyl 5-(N-(2-(4-(1H-imidazole-2-formyl)piperazin-1-yl)phenyl)-N-phenethylsulfamoyl)3-methylbenzofuran-2-carboxylate] | 50 to 100
CCOC(=O)c1sc2ccc(S(=O)(=O)N(CCC3CCCCC3)c3ccccc3N3CCN(C(=O)c4sccc4Br)CC3)cc2c1C [Example M10-180, Ethyl 5-(N-(2-(4-(3-bromothiophene-2-carbonyl)piperazin-1-yl)phenyl)-N-(2-cyclohexylethyl)sulfamoyl)-3-methylbenzothiophene-2-carboxylate] | 50 to 100
CCOC(=O)c1oc2ccc(S(=O)(=O)N(CCc3ccccc3)c3ccccc3N3CCN(C(=O)c4ccc(C)cc4)CC3)cc2c1C [Example M10-106, ethyl 3-methyl-5-(N-(2-(4-(4-methylbenzoyl)piperazin-1-yl)phenyl)-N-phenethylsulfamoyl)benzofuran-2-carboxylate] | 50 to 100
Cc1c(C(=O)O)sc2ccc(S(=O)(=O)N(CCC3CCCCC3)c3ccccc3N3CCN(C(=O)c4sccc4Br)CC3)cc12 [Example F27-S180, 5-(N-(2-(4-(3-bromothiophene-2-carbonyl)piperazin-1-yl)phenyl)-N-(2-cyclohexylethyl)sulfamoyl)-3-methylbenzothiophene-2-carboxylic acid] | 0.1 to 10
CCOC(=O)c1oc2ccc(S(=O)(=O)N(CCc3ccccc3)c3ccccc3N3CCN(C(=O)c4ccc[nH]4)CC3)cc2c1C [Example M10-124, Ethyl 5-(N-(2-(4-(1H-pyrrole-2-carbonyl)piperazin-1-yl)phenyl)-N-phenethylsulfamoyl)-3-methylbenzofuran-2-carboxylate] | 50 to 100
